Data taken from patent US20250099420A1, “SMALL MOLECULE MODULATORS OF GPR139 COMPLEX” (University of Florida Research Foundation, Incorporated, priority 2022, published 2025).
Where two headings read alike, the source gives them in different places.

Columns and labels:
[1] = test system: parental HEK cells; experiment: HEK parental Agonist Counterscreen Assay (non-transfected cells); assay type: cell-based; conditions: for Averaged Max % Response (±St. Dev.): activity relative to known control
Excerpt: The high control for the agonist counterscreen was Forskolin not acetylcholine.

[2] = molecular target: T1, GPR139 (Homo sapiens, UniProt Q6DWJ6); experiment: GPR139 Agonist titration / agonist counterscreen assay (calcium detection, HEK-GPR139 cells); assay type: cell-based; parameters: expressed in transfected cells; host or cells: HEK Aequorin cells, Maxcyte transient transfection; conditions: GPR139 Agonist Activity; for Averaged Max % Response (±St. Dev.): activity relative to known control; for EC50: read-out: EC50
T1 sequence (Q6DWJ6 1-353): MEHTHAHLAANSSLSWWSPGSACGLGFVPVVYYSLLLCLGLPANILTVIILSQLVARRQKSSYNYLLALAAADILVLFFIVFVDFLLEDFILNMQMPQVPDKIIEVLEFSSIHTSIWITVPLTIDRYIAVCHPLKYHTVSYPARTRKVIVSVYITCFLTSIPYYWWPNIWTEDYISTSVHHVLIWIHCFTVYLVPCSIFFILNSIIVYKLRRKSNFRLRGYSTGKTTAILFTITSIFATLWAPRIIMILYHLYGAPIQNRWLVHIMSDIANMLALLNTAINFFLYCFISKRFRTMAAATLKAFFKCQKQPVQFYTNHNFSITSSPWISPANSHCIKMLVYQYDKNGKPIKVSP
Description: GPR activity was assessed using a calcium detection assay. […] Negative control samples were treated with DMSO. […] Intracellular calcium was measured using Calcium 5.

[3] = Homo sapiens, HEK293, HEK Agonist Activity section of Table 4 (parental HEK counterscreen)
[4] = Homo sapiens, HEK293, HEK Agonist Activity, parental non-transfected HEK cells
[5] = values printed in E-notation without unit
[6] = HEK Agonist Activity section of Table 4 (parental HEK counterscreen)

Lipophilic Efficiency (logD) ([1]; HEK Agonist Activity section)	Lipophilic Efficiency (logP) ([1]; HEK Agonist Activity section)	Averaged Max % Response (±St. Dev.) [2] [%]	Lipophilic Efficiency (logD) ([2]; based on logD)	Lipophilic Efficiency (logP) ([2]; based on logP)	Hill Slope ([2]; fitted dose-response curve)	Efficiency Ligand ([2]; ligand efficiency)	Efficiency Ligand [2]	Hill Slope [2]	Lipophilic Efficiency (logD) [2]	Lipophilic Efficiency (logP) [2]	EC50 ([2]; HEK-GPR139 cells) [nM]	EC50 [2, 5] [nM]	SMILES	Averaged Max % Response (±St. Dev.) ([1]; HEK Agonist Activity section) [%]	EC50 [1, 3] [nM]	EC50 [1, 6] [nM]	further results
1.68	1.68	106.36 ± 3.74	3.70	3.70	0.50	0.36							COc1ccc(CCCC(=O)c2cccc(-c3ccc(OC)cc3)c2)cc1 [SR-01000655128]	0.74 ± 3.27	> 14100		
1.72	1.72	79.17 ± 5.74					0.32	1.25	3.01	3.01	727		O=c1cc(-c2ccccc2)[nH]c2nc(OCc3cccc([N+](=O)[O-])c3)nn12 [SR-01000289377]	−0.70 ± 7.45	> 14100		
		112.23 ± 25.44	4.43	4.43	0.32	0.50						6.2	COc1ccc(CCNC(=O)COc2ccc(Cl)cc2Cl)cc1 [SR-01000412367]				Lipophilic Efficiency (logD) ([1]; HEK Agonist Activity): 1.11; Lipophilic Efficiency (logP) ([1]; HEK Agonist Activity): 1.11; Averaged Max % Response (±St. Dev.) ([1]; HEK Agonist Activity): 5.28 ± 6.57%; EC50 [1, 4]: > 13000 nM
2.07	2.07	99.92 ± 5.04					0.31	1.14	2.93	2.93	1900		COC(=O)c1ccc(CNC(=O)Nc2ccc(-c3cn[nH]c3)cc2)cc1.O=C(O)C(F)(F)F [SR-00000005410]	7.35 ± 2.40		> 14100	
−0.16	−0.16	96.91 ± 19.53	1.98	1.98	0.52	0.28						85.3	Cc1ccccc1NC(=O)CSC1=C(C#N)C(c2ccccc2C(F)(F)F)C2=C(CCCC2=O)N1 (stereo not shown) [SR-01000484454]	27.15 ± 8.69		> 11900	
0.89	0.89	114.96 ± 19.78					0.28	0.89	1.82	1.82	1900		Cc1ccc(NC(=O)CSC2=C(C#N)C(c3ccc(F)cc3)CC(=O)N2)c(C)c1 (stereo not shown) [SR-01000484494]	14.09 ± 3.35		> 16000	
1.41	1.41	93.14 ± 10.62	3.67	3.67	0.47	0.35						81.6	Cc1ccc2c(CC(=O)NNC(=O)CC34CC5CC(CC(C5)C3)C4)coc2c1 [SR-01000054849]	1.19 ± 3.75		> 14800	
		95.66 ± 12.25	3.21	3.21	0.45	0.43						37.1	Cc1cccc(NC(=O)NCCc2ccc3c(c2)CCCN3C)c1 [SR-01000923247]				Lipophilic Efficiency (logD) ([1]; HEK Agonist Activity): 0.63; Lipophilic Efficiency (logP) ([1]; HEK Agonist Activity): 0.63; Averaged Max % Response (±St. Dev.) ([1]; HEK Agonist Activity): 20.62 ± 4.90%; EC50 [1, 4]: > 14100 nM
3.15	3.14	96.26 ± 15.22	5.62	5.61	0.87	0.34						47.5	Cc1ccc(C(=O)NNC(=O)CSc2nnc(Cn3cnc4ccccc43)o2)cc1 [SR-01000337370]	23.00 ± 5.22		> 14100	
1.32	1.32	113.63 ± 16.89	3.06	3.06	0.65	0.40						252	O=C(Cn1ncc2c(Cl)cccc21)NCCc1ccc(Cl)cc1 [SR-01000155030]	10.75 ± 8.11	> 14100		
0.91	0.91	71.94 ± 4.54	2.76	2.76	0.57	0.45						197	O=C(NCCn1ccc2ccccc21)c1cccc(Br)c1 [SR-01000124135]	7.54 ± 4.78	> 14100		
3.41	3.41	113.63 ± 31.77					0.40	0.89	5.11	5.11	278		O=C(Cn1ncn2cccc2c1=O)NCCc1ccc(Cl)cc1 [SR-01000140172]	2.22 ± 10.07		> 14100	
		105.06 ± 17.21	5.32	5.32	0.88	0.39						26.3	CCc1nn(CC(=O)NCc2cccc(Br)c2)c(=O)c2cc3occc3n12 [SR-01000099472]				Lipophilic Efficiency (logD) ([1]; HEK Agonist Activity): 2.60; Lipophilic Efficiency (logP) ([1]; HEK Agonist Activity): 2.60; Averaged Max % Response (±St. Dev.) ([1]; HEK Agonist Activity): 10.79 ± 6.86%; EC50 [1, 4]: > 14100 nM
		126.32 ± 18.07	5.83	5.82		0.42							CCCCn1c(C)c(N(CC)C(=O)C(C)(C)Oc2ccc(C)cc2)c(=O)[nH]c1=O [SR-01000071222]				Lipophilic Efficiency (logD) ([1]; HEK Agonist Activity): 2.01; Lipophilic Efficiency (logP) ([1]; HEK Agonist Activity): 2.01; Averaged Max % Response (±St. Dev.) ([1]; HEK Agonist Activity): 4.62 ± 5.04%; EC50 [1, 4]: > 14700 nM
1.73	1.73	91.83 ± 43.39					0.34	1.86	2.95	2.95	840		O=C(NCCc1ccc(Cl)cc1)c1nnc(Cc2ccc(F)cc2)o1 [SR-01000125346]	18.06 ± 8.45	> 14100		
2.50	2.50	90.08 ± 9.76					0.33	1.73	3.73	3.73	839		O=C(Cn1ncn2c(cc3sccc32)c1=O)NCCc1ccc(Cl)cc1 [SR-01000099712]	7.86 ± 5.01	> 14100		
0.71	0.71	110.88 ± 6.83	3.11	3.11	0.64	0.33						49.6	CCc1cc(C2=C/C(=C/c3c(OC)ccc4ccccc34)C(=O)O2)cc(OC)c1OC [SR-01000551463]	18.60 ± 9.91	> 12200		
2.15	2.15	147.35 ± 21.79	4.50	4.50	0.70	0.39						62.9	COc1cc(C(=O)NCCn2ccc3ccccc32)cc(OC)c1OC [SR-01000124399]	−5.54 ± 8.42	> 14100		
		94.95 ± 1.55	4.44	4.44	0.71	0.39						19.1	CC(NC(=O)Cn1cc(NC(=O)c2ccccc2F)cn1)c1ccccc1Cl (stereo not shown) [SR-01000194602]				Lipophilic Efficiency (logD) ([1]; HEK Agonist Activity): 1.58; Lipophilic Efficiency (logP) ([1]; HEK Agonist Activity): 1.58; Averaged Max % Response (±St. Dev.) ([1]; HEK Agonist Activity): 4.93 ± 4.93%; EC50 ([1]; HEK Agonist Activity, parental non-transfected HEK cells): > 14100 nM
